Data reported in US5547975A, “Benzopyranopyrazolyl derivatives for the treatment of inflammation” (priority 1994, dated 1996).

What was measured:
Human COX II = target: T1, Human COX II (Homo sapiens, UniProt P35354); experiment: Evaluation of COX II activity in vitro (recombinant enzyme, PGE2 ELISA); format: biochemical; conditions: 10 μM arachidonic acid, pre-incubation 10-20 minutes, pH 8.0; read-out: Human COX II ID50
T1 construct: made in house; host or cells: SF9 insect cells, recombinant baculovirus (transfer vector pVL1393)
T1 sequence (P35354 18-604): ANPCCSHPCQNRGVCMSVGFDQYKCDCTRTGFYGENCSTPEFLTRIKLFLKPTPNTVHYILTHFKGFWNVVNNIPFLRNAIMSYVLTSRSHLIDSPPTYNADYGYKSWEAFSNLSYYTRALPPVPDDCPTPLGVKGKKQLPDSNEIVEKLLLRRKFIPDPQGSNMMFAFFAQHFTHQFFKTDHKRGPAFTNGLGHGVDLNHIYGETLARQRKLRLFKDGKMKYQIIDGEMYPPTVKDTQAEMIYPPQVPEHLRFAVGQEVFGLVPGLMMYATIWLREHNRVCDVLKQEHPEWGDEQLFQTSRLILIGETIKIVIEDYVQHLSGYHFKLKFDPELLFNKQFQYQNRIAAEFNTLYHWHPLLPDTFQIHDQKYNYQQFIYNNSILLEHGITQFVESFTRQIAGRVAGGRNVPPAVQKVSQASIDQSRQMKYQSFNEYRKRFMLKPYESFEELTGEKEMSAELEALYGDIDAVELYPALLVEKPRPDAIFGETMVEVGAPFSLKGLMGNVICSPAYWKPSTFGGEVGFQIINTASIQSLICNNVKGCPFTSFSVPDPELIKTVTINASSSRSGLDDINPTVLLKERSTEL
Method: (§1) Evaluation of COX I and COX II activity in vitro
The COX II inhibition activity of the compounds of this invention illustrated in the Examples was determined by the following methods.
(§2) a. Preparation of recombinant COX baculoviruses
(§3) A 2.0 kb fragment containing the coding region of either human or murine COX-I or human or murine COX-II was cloned into a BamH1 site of the baculovirus transfer vector pVL1393 (Invitrogen) to generate the baculovirus transfer vectors for COX-I and COX-II in a manner similar to the method of D. R. O'Reilly et al (Baculovirus Expression Vectors: A Laboratory Manual (1992)). Recombinant baculoviruses were isolated by transfecting 4 μg of baculovirus transfer vector DNA into SF9 insect cells ([…]) along with 200 ng of linearized baculovirus plasmid DNA by the calcium phosphate method. See M. D. Summers and G. E. Smith, A Manual of Methods for Baculovirus Vectors and Insect Cell Culture Procedures, Texas Agric. Exp. Station Bull. 1555 (1987). Recombinant viruses were purified by three rounds of plaque purification and high titer (10E7-10E8 pfu/ml) stocks of virus were prepared. For large scale production, SF9 insect cells were infected in 10 liter fermentors (0.5×10^6 /ml) with the recombinant baculovirus stock such that the multiplicity of infection was 0.1. After 72 hours the cells were centrifuged and the cell pellet homogenized in Tris/Sucrose (50 mM: 25%, pH 8.0) containing 1% 3-[(3-cholamidopropyl)dimethylammonio]-1-propanesulfonate (CHAPS). The homogenate was centrifuged at 10,000'G for 30 minutes, and the resultant supernatant was stored at -80° C. before being assayed for COX activity.
(§4) b. Assay for COX I and COX II activity:
(§5) COX activity was assayed as PGE2 formed/μg protein/time using an ELISA to detect the prostaglandin released. CHAPS-solubilized insect cell membranes containing the appropriate COX enzyme were incubated in a potassium phosphate buffer (50 mM, pH 8.0) containing epinephrine, phenol, and heme with the addition of arachidonic acid (10 μM). Compounds were pre-incubated with the enzyme for 10-20 minutes prior to the addition of arachidonic acid. Any reaction between the arachidonic acid and the enzyme was stopped after ten minutes at 37° C./room temperature by transferring 40 μl of reaction mix into 160 μl ELISA buffer and 25 μM indomethacin. The PGE2 formed was measured by standard ELISA technology (Cayman Chemical).

Human COX I = target: T2, Human COX I (Homo sapiens, UniProt P23219); experiment: Evaluation of COX I activity in vitro (recombinant enzyme, PGE2 ELISA); format: biochemical; conditions: 10 μM arachidonic acid, pre-incubation 10-20 minutes, pH 8.0; read-out: Human COX I ID50
T2 construct: made in house; host or cells: SF9 insect cells, recombinant baculovirus (transfer vector pVL1393)
T2 sequence (P23219 24-599): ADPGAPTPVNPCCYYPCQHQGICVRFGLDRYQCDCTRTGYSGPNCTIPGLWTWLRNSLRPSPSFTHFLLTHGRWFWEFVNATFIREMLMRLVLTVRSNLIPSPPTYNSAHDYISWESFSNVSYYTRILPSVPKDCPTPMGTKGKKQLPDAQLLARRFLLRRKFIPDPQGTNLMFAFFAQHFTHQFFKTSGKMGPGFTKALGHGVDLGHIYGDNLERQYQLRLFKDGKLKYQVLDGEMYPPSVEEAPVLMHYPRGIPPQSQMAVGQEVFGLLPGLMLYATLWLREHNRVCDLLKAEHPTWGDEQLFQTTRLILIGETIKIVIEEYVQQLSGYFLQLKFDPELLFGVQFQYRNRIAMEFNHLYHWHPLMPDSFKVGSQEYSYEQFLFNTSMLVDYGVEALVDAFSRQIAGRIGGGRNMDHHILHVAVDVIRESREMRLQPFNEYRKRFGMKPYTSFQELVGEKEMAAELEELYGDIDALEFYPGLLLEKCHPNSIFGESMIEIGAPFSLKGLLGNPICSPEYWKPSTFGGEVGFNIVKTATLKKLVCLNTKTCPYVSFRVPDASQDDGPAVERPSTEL
From the text: as §1, §2, §3, §4, §5

| IC50 (Human COX II) | IC50 (Human COX I) | SMILES |
| --- | --- | --- |
| 23.5 µM | 11.1 µM | NS(=O)(=O)c1ccc(-n2nc(C(F)(F)F)c3oc4ccccc4c32)cc1 [Example 6, 4-[3-(Trifluoromethyl)-1H-benzofuro[3,2-c]pyrazol-1-yl]benzenesulfonamide] |
| < 0.1 µM | < 0.1 µM | COc1ccc2c(c1)CSc1c(C(F)(F)F)nn(-c3ccc(S(N)(=O)=O)cc3)c1-2 [Example 20, 4-[1,5-Dihydro-7-methoxy-3-(trifluoromethyl)-[2]benzothiopyrano[4,3-c]pyrazol-1-yl]benzenesulfonamide] |
| 2.2 µM | 73.4 µM | COc1ccc2c(c1F)CSCc1c(C(F)(F)F)nn(-c3ccc(S(N)(=O)=O)cc3)c1-2 [Example 30, 4-[4,6-dihydro-7-fluoro-8-methoxy-3-(trifluoromethyl)-[2]benzothiepino[5,4-c]pyrazol-1-yl]benzenesulfonamide] |
| 4.8 µM | 24.4 µM | NS(=O)(=O)c1ccc(-n2nc(C(F)(F)F)c3c2-c2cc(F)ccc2OC3)cc1 [Example 5, 4-[1,4-Dihydro-8-fluoro-3-(trifluoromethyl)-[1]benzopyrano[4,3-c]pyrazol-1-yl]benzenesulfonamide] |
| 4.7 µM | > 100 µM | NC(=O)c1nn(-c2ccc(S(N)(=O)=O)cc2)c2c1SCc1cc(F)ccc1-2 [Example 27, [1-(4-aminosulfonylphenyl)-1,5-dihydro-7-fluoro-[2]benzothiopyrano[4,3-c]pyrazol-3-yl]carboxamide] |
| 0.5 µM | – | COC(=O)c1nn(-c2ccc(S(N)(=O)=O)cc2)c2c1CSc1ccccc1-2 [Example 8, Methyl[1-[(4-aminosulfonyl)phenyl]-1,4-dihydro-[1]benzothiopyrano[4,3-c]pyrazol-3-yl]carboxylate] |
| 45.6 µM | 91.1 µM | NS(=O)(=O)c1ccc(-n2nc(C(F)(F)F)c3c2-c2cc(Cl)sc2C[S+]3[O-])cc1 (stereo not shown) [Example 24, 4-[7-chloro-1,5-dihydro-3-trifluoromethyl-thieno[3',2':4,5]thiopyrano-s-oxide[3,2-c]pyrazol-1-yl]benzenesulfonamide] |
| 95 µM | > 100 µM | COc1cc2c(cc1OC)-c1c(c(C(F)(F)F)nn1-c1ccc(S(N)(=O)=O)cc1)CS2 [Example 12, 4-[1,4-Dihydro-7,8-dimethoxy-3-(trifluoromethyl)-[1]benzothiopyrano[4,3-c]pyrazol-1-yl]benzenesulfonamide] |
| 1.3 µM | – | NS(=O)(=O)c1ccc(-n2nc(C(F)(F)F)c3c2-c2ccccc2OC3)cc1 [Example 3, 4-[1,4-Dihydro-3-(trifluoromethyl)-[1]benzopyrano[4,3-c]pyrazol-1-yl]benzenesulfonamide] |
| 52 µM | > 100 µM | CC(C)c1cccc2c1SCc1c(C(F)(F)F)nn(-c3ccc(S(N)(=O)=O)cc3)c1-2 [Example 11, 4-[1,4-Dihydro-6-isopropyl-3-(trifluoromethyl)-[1]benzothiopyrano[4,3-c]pyrazol-1-yl]benzenesulfonamide] |
| 3.5 µM | 51 µM | N#Cc1nn(-c2ccc(S(N)(=O)=O)cc2)c2c1CSc1ccccc1-2 [Example 22, 1-[4-(Aminosulfonyl)phenyl]-1,4-dihydro-[1]benzothiopyrano[4,3-c]pyrazol-3-carbonitrile] |
| < 0.1 µM | 0.8 µM | Cc1ccc2c(c1)CSc1c(C(F)(F)F)nn(-c3ccc(S(N)(=O)=O)cc3)c1-2 [Example 17, 4-[1,5-Dihydro-7-methyl-3-(trifluoromethyl)-[2]benzothiopyrano[4,3-c]pyrazol-1-yl]benzenesulfonamide] |
| < 0.1 µM | – | NS(=O)(=O)c1ccc(-n2nc(C(F)(F)F)c3c2-c2ccccc2CS3)cc1 [Example 16, 4-[1,5-Dihydro-3-(trifluoromethyl)-[2]benzothiopyrano[4,3-c]pyrazol-1-yl]benzenesulfonamide] |
| < 0.1 µM | 0.3 µM | NS(=O)(=O)c1ccc(-n2nc(C(F)(F)F)c3c2-c2ccc(Cl)cc2CS3)cc1 [Example 19, 4-[7-Chloro-1,5-dihydro-3-(trifluoromethyl)-[2]benzothiopyrano[4,3-c]pyrazol-1-yl]benzenesulfonamide] |
| 1.2 µM | > 100 µM | COc1ccc2c(c1F)C[S+]([O-])c1c(C(F)(F)F)nn(-c3ccc(S(N)(=O)=O)cc3)c1-2 (stereo not shown) [Example 28, 4-[1,5-dihydro-6-fluoro-7-methoxy-3-(trifluoromethyl)-[2]benzothiopyrano-S-oxide[4,3-c]pyrazol-1-yl]benzenesulfonamide] |
| < 0.1 µM | 0.3 µM | NS(=O)(=O)c1ccc(-n2nc(C(F)(F)F)c3c2-c2ccc(Cl)cc2SC3)cc1 [Example 15, 4-[7-Chloro-1,4-dihydro-3-(trifluoromethyl)-[1]benzothiopyrano[4,3-c]pyrazol-1-yl]benzenesulfonamide] |
| < 0.1 µM | 0.3 µM | NS(=O)(=O)c1ccc(-n2nc(C(F)(F)F)c3c2-c2ccc(F)cc2CS3)cc1 [Example 26, 4-[1,5-dihydro-7-fluoro-3-(trifluoromethyl)-[2]benzothiopyrano[4,3-c]pyrazol-1-yl]benzenesulfonamide] |
| 48.2 µM | > 100 µM | NS(=O)(=O)c1ccc(-n2nc(C(F)(F)F)c3c2-c2ccc(Cl)c(Cl)c2SC3)cc1 [Example 9, 4-[6,7-Dichloro-1,4-dihydro-3-(trifluoromethyl)-[1]benzothiopyrano[4,3-c]pyrazol-1-yl]benzenesulfonamide] |
| 0.2 µM | 4.6 µM | Cc1ccc2c(c1)SCc1c(C(F)(F)F)nn(-c3ccc(S(N)(=O)=O)cc3)c1-2 [Example 14, 4-[1,4-Dihydro-7-methyl-3-(trifluoromethyl)-[1]benzothiopyrano[4,3-c]pyrazol-1-yl]benzenesulfonamide] |
| < 0.1 µM | 3.7 µM | Cc1ccc2c(c1)CSc1c(C(F)(F)F)nn(-c3ccc(S(C)(=O)=O)cc3)c1-2 [Example 18, 1,5-Dihydro-1-[4-(methylsulfonyl)phenyl]-7-methyl-3-(trifluoromethyl)-[2]benzothiopyrano[4,3-c]pyrazole] |
| 0.5 µM | – | COC(=O)c1nn(-c2ccc(S(N)(=O)=O)cc2)c2c1COc1ccccc1-2 [Example 4, Methyl[1-[4-(aminosulfonyl)phenyl]-1,4-dihydro-[1]benzopyrano[4,3-c]pyrazol-3-yl]carboxylate] |
| < 0.1 µM | 2.7 µM | COc1ccc2c(c1F)CSc1c(C(F)(F)F)nn(-c3ccc(S(N)(=O)=O)cc3)c1-2 [Example 1, 4-[1,5-Dihydro-6-fluoro-7-methoxy-3-(trifluoromethyl)-[2]benzothiopyrano[4,3-c]pyrazol-1-yl]benzenesulfonamide] |
| 0.8 µM | 13.2 µM | COC(=O)c1nn(-c2ccc(S(N)(=O)=O)cc2)c2c1SCc1cc(F)ccc1-2 [Example 29, methyl[1-(4-aminosulfonylphenyl)-1,5-dihydro-7-fluoro-[2]benzothiopyrano[4,3-c]pyrazol-3-yl]carboxylate] |
| < 0.1 µM | < 0.1 µM | COc1ccc2c(c1)SCc1c(C(F)(F)F)nn(-c3ccc(S(N)(=O)=O)cc3)c1-2 [Example 13, 4-[1,4-Dihydro-7-methoxy-3-(trifluoromethyl)-[1]benzothiopyrano[4,3-c]pyrazol-1-yl]benzenesulfonamide] |
| < 0.1 µM | > 100 µM | COc1ccc2c(c1F)CSc1c(C(F)F)nn(-c3ccc(S(N)(=O)=O)cc3)c1-2 [Example 25, 4-[3-(difluoromethyl)-1,5-dihydro-6-fluoro-7-methoxy-[2]benzothiopyrano[4,3-c]pyrazol-1-yl]benzenesulfonamide] |
